Results taken from patent publication EP0606463B1, “NEUROMEDIN B RECEPTOR ANTAGONISTS” (The Administrators of The Tulane Educational Fund, priority 1992, dated 1994).
Where two headings read alike, the source gives them in different places. Where a SMILES comes first, the peptide text is derived from it. Bridges are numbered along the chain shown (N, C = ends). [ ]: non-standard residue; d: D form. 2Nal = N[C@@H](Cc1ccc2ccccc2c1)C(=O)O; d2Nal = N[C@H](Cc1ccc2ccccc2c1)C(=O)O

Columns and labels:
[1] = biological target: T1, NMB receptors on C-6 cells (Rattus norvegicus, UniProt P24053); assay: Binding of 125I-[D-Tyr0]NMB to C-6 glioblastoma cells; settings: NMB Receptor, Ki by method of Cheng, read-out: Ki(nM) ^123I-NMB Binding
T1 construct: endogenous in cells; host or cells: rat glioblastoma C-6 cells
Protocol: Binding studies using rat glioblastoma C-6 or NMB-R transfected cells were performed as described previously [Benya, R. V. et al. Mol. Pharmacol. 42:1058 (1992); and Wang, L-H. et al. Biochem. J. 286:641 (1992)] by suspending disaggregated cells in binding buffer, which was composed of standing buffer ([…], 7.7 mM KCl, 1.0 mM EGTA, 0.02% soybean trypsin inhibitor) additionally containing 50 mM HEPES, 1 mM MgCl2, 1.5 mM CaCl2, 2.2 mM KH2PO4, 0.015% glutamine, and 0.2% BSA (w\v) (pH 7.4). Incubations contained 75 pM ^125I-[D-Tyr^0]NMB and 15 x 10^6 C-6 cells/ml or 2 x 10^6 NMB-R transfected cells/ml, for 60 min at 22°C. Nonsaturable binding of ^125I-[D-Tyr^0]NMB was te amount of radioactivity associated with C-6 cells or NMB-R transfected cells when the incubation mixture contained […]. Nonsaturable binding was < 15% of total binding in all experiments; all values are reported herein as saturable binding (i.e., total minus nonsaturable binding).

rat NMB receptor = biological target: T2, rat NMB receptor (Rattus norvegicus, UniProt P24053); assay: Binding of 125I-[D-Tyr0]NMB to NMB-R transfected BALB 3T3 cells
T2 construct: a full length NMB-preferring bombesin receptor clone generated from rat esophagus; expressed in transfected cells; host or cells: BALB 3T3 cells
T2 sequence (P24053 1-390): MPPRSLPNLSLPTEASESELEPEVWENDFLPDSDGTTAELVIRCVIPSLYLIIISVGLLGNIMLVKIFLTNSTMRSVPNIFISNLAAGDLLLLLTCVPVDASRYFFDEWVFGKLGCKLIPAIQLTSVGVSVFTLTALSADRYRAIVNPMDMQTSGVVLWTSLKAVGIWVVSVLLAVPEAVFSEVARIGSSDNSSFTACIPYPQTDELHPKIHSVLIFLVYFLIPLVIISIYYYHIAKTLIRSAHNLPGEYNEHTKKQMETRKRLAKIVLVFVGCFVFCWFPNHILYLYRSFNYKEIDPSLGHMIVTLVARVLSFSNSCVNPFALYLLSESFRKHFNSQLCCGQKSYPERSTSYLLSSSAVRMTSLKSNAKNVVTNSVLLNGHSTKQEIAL
Protocol: (§1) Cells were passaged every 3-4 days at confluence, using 0.1% trypsin in 1 mM EDTA. Rat glioblastoma C-6 tumor cells were maintained similarly and were passaged weekly at confluence. Both cell lines were cultured at 37°C in a 5% CO2 atmosphere. Rat AR 42J pancreatic acinar cells were cultured in Dulbecco's modified Eagle's medium (DMEM) without antibiotics and supplemented with 10% (vol/vol) fetal calf serum. The incubation atmosphere consisted of 10% CO2-90% humidified air at 37°C.

NMB Receptor = biological target: T3, NMB Receptor (Rattus norvegicus, UniProt P24053); assay: [3H]inositol phosphates (IP) in NMB-R transfected cells; format: cell-based
T3 construct: a full length NMB-preferring bombesin receptor clone generated from rat esophagus; expressed in transfected cells; host or cells: BALB 3T3 cells
T3 sequence (P24053 1-390): T2 sequence (P24053 1-390)
Protocol: as §1, with “As described previously [Wada, E., et al. Neuron 6:421 (1991)], BALB 3T3 cells expressing a stably transfected rat NMB receptor (NMB-R transfected cells) were obtained using calcium phosphate precipitation of a full length NMB-preferring bombesin receptor clone generated from rat esophagus and subcloned into a modified version of the pCD2 plasmid. Cells” for “Cells”
(§2) Total phosphoinositides in C-6 cells and in NMB-R transfected cells were determined as described previously, with minor modifications [Benya, R. V. et al. Mol. Pharmacol. 42:1058 (1992); and Wang, L-H. et al. Biochem. J. 286:641 (1992)]. Cells were grown to confluence in 24-well plates and then loaded with 100 µCi/ml myo-[2-^3H]inositol in Dulbecco's modified essential medium with 2% fetal bovine serum at 37°C for 48 hrs. Cells were washed and incubated in phosphoinositide buffer (standard buffer additionally containing 10 mM LiCl, 20 mM HEPES, 2 mM CaCl2, 2% BSA, and 1.2 mM MgSO4) for 15 min and then for 60 min at 37°C with agonists at various concentrations or with 3 nM NMB (a half-maximal effective concentration) and possible antagonists at different concentrations. Reactions were halted using ice-cold 1% HCl in methanol, and the inositol phosphates (IP) were isolated as described previously [Bologna, M. et al. Cancer 63:1714 (1989); and Endo, T. et al. J. Endocrinol. 131:313 (1991)]. Briefly, after loading of the anion exchange column, free [^3H]glycerophosphorylinositol was removed by washing with 5 mM disodium tetraborate in 60 mM sodium formate. Total [^3H]inositol phosphates were then eluted using 100 mM formic acid in 1.0 M ammonium formate as described previously [Benya, R. V. et al. Mol. Pharmacol. 42:1058 (1992); and Wang, L-H. et al. Biochem. J. 286:641 (1992)].

GRP Receptor = biological target: T4, GRP Receptor (Rattus norvegicus, UniProt P52500); assay: Amylase release from rat pancreatic acini; format: cell-based
T4 construct: from tissue; host or cells: dispersed pancreatic acini

[2] = biological target: T5, GRP receptors on rat pancreatic acini (Rattus norvegicus, UniProt P52500); assay: Binding of 125I-[Tyr4]bombesin to pancreatic acini; settings: read-out: Ki (nM) ^123I[Tyr^4]BnBinding
T5 construct: from tissue; host or cells: dispersed pancreatic acini
Source text: Nonsaturable binding was < 10% of total binding in all experiments.

[3] = biological target: T6, somatostatin receptors on AR 42J cells (Rattus norvegicus, UniProt P30680); assay: Somatostatin membrane receptor assay (AR 42J cell membranes); format: binding; settings: for inhibition of binding of ^125I-[Tyr^11]SS-14 to somatostatin receptors: AR 42J cells, concentrations up to 10 µM
T6 construct: endogenous in cells; host or cells: rat AR 42J pancreatic acinar cells (membranes)

[4] = biological target: T7, GRP receptors on AR 42J cell membranes (Rattus norvegicus, UniProt P52500); assay: GRP membrane receptor assay (AR 42J cell membranes); format: binding; settings: method of Cheng, unit inferred, read-out: affinity, ^125I-[Tyr^4]Bn
T7 construct: endogenous in cells; host or cells: rat AR 42J pancreatic acinar cells (membranes)

[5] = biological target: T8, NMB receptors on rat olfactory bulb membranes (Rattus norvegicus, UniProt P24053); assay: NMB membrane receptor assay (rat olfactory bulb membranes); format: binding; settings: Rat Olfactory bulb membranes; method of Cheng; unit inferred; read-out: affinity, ^125I-NMB
T8 construct: Membranes were prepared from rat olfactory bulb (NMB membrane receptor assay); from tissue; host or cells: rat olfactory bulb membranes
T8 sequence (P24053 1-390): T2 sequence (P24053 1-390)

mu opioid receptors = biological target: T9, mu opioid receptors (Rattus norvegicus, UniProt P33535); assay: mu opioid membrane assay ([3H]DAGO, rat forebrain membranes); format: binding; settings: for inhibition of binding to mu opioid receptors: rat forebrain membranes, concentrations up to 10 µM
T9 construct: rat forebrain (TRH, mu and delta opioid membrane assays); from tissue; host or cells: rat forebrain membranes

[6] = biological target: T10, NMB receptors on C-6 glioblastoma cells (Rattus norvegicus, UniProt P24053); assay: NMB-stimulated [3H]IP in C-6 glioblastoma cells; format: cell-based; settings: C-6 glioblastoma cells; agonist without analog; basal 7.2±1.0
T10 construct: endogenous in cells; host or cells: rat glioblastoma C-6 cells
T10 sequence (P24053 1-390): T2 sequence (P24053 1-390)
Protocol: as §2, with “for 60 min at 37°C with agonists at various concentrations or with 3 nM NMB (a half-maximal effective concentration) and possible antagonists at different concentrations.” left out

[7] = NMB Receptor, Transfected Cells, Ki by method of Cheng, read-out: Ki (nM) ^123I-NMB Binding
[8] = NMB Receptor, Transfected Cells, read-out: IC50 (nM) NMB-stimulated [^3H]IP

T9 sequence (P33535 whole entry): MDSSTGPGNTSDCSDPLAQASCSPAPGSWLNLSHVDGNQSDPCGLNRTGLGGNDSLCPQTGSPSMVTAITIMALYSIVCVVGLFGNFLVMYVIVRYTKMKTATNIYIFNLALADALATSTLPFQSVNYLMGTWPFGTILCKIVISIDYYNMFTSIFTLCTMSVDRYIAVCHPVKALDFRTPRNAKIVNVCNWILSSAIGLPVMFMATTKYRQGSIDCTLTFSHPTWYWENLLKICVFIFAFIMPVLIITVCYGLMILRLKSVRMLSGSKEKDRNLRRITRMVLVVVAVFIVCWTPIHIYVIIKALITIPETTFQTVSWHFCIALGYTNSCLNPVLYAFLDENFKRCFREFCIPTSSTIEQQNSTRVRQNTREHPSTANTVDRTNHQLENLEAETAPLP
T4 sequence (P52500 whole entry): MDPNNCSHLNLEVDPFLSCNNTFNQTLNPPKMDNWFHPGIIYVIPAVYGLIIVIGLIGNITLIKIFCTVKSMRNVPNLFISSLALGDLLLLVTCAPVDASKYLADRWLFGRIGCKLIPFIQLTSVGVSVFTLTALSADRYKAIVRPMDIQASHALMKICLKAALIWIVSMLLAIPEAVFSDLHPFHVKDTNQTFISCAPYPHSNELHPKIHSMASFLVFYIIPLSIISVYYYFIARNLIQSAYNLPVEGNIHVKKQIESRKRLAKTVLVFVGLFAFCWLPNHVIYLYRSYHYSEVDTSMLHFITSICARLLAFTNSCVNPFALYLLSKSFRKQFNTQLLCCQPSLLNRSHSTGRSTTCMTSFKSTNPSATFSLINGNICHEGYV
T6 sequence (P30680 whole entry): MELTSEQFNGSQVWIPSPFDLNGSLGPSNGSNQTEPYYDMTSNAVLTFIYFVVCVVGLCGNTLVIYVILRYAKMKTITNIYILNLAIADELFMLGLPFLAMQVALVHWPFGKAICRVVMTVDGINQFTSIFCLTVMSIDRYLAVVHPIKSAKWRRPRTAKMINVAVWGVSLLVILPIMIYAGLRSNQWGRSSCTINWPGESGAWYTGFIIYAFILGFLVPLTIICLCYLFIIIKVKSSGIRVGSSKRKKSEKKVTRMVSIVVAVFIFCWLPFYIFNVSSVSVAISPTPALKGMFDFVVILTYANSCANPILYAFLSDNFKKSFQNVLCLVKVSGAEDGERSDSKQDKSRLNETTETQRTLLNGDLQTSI
T5 sequence (P52500 whole entry): as the sequence (P52500 whole entry) above
T7 sequence (P52500 whole entry): as above

## NCCCC[C@@H]1NC(=O)[C@@H](Cc2c[nH]c3ccccc23)NC(=O)[C@H](Cc2ccc(O)cc2)NC(=O)[C@@H](NC(=O)[C@H](N)Cc2ccc3ccccc3c2)CSSC[C@@H](C(=O)N[C@@H](Cc2ccc3ccccc3c2)C(N)=O)NC(=O)[C@H](Cc2ccc3ccccc3c2)NC1=O [Analog #3, [Nal^6]-cyclo SS-octa] (H-[d2Nal]CY[dW]K[2Nal]C[2Nal]-NH2; disulfide 2-7)
[1]
  Ki: 997 ± 76 nM
Rat NMB receptor; [7]
  Ki: 697 ± 64 nM
Rat NMB receptor; NMB-R transfected cells, summary of Table 1, read-out: K1
  Ki: 700 to 800 nM
Rat NMB receptor; inhibition of ^125I-[Tyr^0]NMB binding to NMB-R transfected cells
  fold by which cyclo SS-octa was more potent than the analog: 4 fold
NMB Receptor; [8]
  IC50: 2880 ± 188 nM
NMB Receptor; NMB-R transfected cells, summary of Table 1, read-out: IC50 of NMB-stimulated increases in [^3H]IP
  IC50: 3000 to 6600 nM
NMB Receptor; analog 10 µM alone, no-additive control 13 ± 3
  NMB-R Transfected Cells [^3H]IP Alone (10 µ M): 11 ± 1 dpm x 10^3
NMB Receptor; analog 10 µM plus NMB 3 nM, NMB without analog 186 ± 58
  NMB-R Transfected Cells [^3H]IP Plus NMB (3 nM): 65 ± 15 dpm x 10^3
GRP Receptor
  IC50: > 10000 nM
GRP Receptor; analog 10 µM alone, no-additive control 4 ± 1
  Rat Pancreatic Acini Amylase Release Alone (10µM): 3 ± 1 % total
GRP Receptor; analog 10 µM plus Bn 0.3 nM, Bn without analog 15 ± 1
  Rat Pancreatic Acini Amylase Release Plus Bn(0.3 nM): 15 ± 1 % total
[2]
  Ki: > 10000 nM

## CC(C)[C@@H]1NC(=O)[C@H](CCCCN)NC(=O)[C@@H](Cc2c[nH]c3ccccc23)NC(=O)[C@H](Cc2ccc(O)cc2)NC(=O)[C@@H](NC(=O)[C@H](N)Cc2ccc3ccccc3c2)CSSC[C@@H](C(=O)N[C@H](C(N)=O)[C@@H](C)O)NC1=O [Analog #5, [Thr^8]-cyclo-SS-octa]
[1]
  Ki: 3790 ± 1080 nM
Rat NMB receptor; K1, NMB-R transfected cells, summary of Table 1
  Ki: 14000 to 19000 nM
Rat NMB receptor; [7]
  Ki: 14800 ± 2650 nM
NMB Receptor; [8]
  IC50: > 10000 nM
NMB Receptor; NMB-R transfected cells, 3 nM NMB, peptide 10 µM
  effect on NMB-stimulated increase in [^3H]IP: no activity
GRP Receptor
  IC50: > 10000 nM
[2]
  Ki: > 10000 nM
[3]; AR 42J Cell Membranes, method of Cheng, unit inferred, read-out: affinity, ^125I-[Tyr^11]SS-14
  Ki: 0.00029 ± 3e-05 µM
[4]
  Ki: 3.9 ± 1.2 µM
[5]
  Ki: 0.8 ± 0.2 µM
Mu opioid receptors; Rat Forebrain membranes, method of Cheng, unit inferred, read-out: affinity, [^3H]DAGO
  Ki: 0.002 ± 0.0014 µM

## CSCC[C@H](NC(=O)[C@H](CC(C)C)NC(=O)[C@H](Cc1c[nH]cn1)NC(=O)CNC(=O)[C@@H](NC(=O)[C@H](C)NC(=O)[C@H](Cc1c[nH]c2ccccc12)NC(=O)[C@H](Cc1c[nH]cn1)NC(=O)[C@H](CC(N)=O)NC(=O)CNC(=O)[C@H](CCCNC(=N)N)NC(=O)[C@@H]1CCCN1C(=O)[C@H](Cc1ccc(O)cc1)NC(=O)[C@H](CCSC)NC(=O)[C@H](CCCCN)NC(=O)[C@@H](NC(=O)[C@H](CC(C)C)NC(=O)[C@@H](NC(=O)[C@@H](NC(=O)CNC(=O)CNC(=O)CNC(=O)[C@H](C)NC(=O)[C@@H]1CCCN1C(=O)[C@H](CC(C)C)NC(=O)[C@@H]1CCCN1C(=O)[C@@H](N)C(C)C)[C@@H](C)O)C(C)C)[C@@H](C)O)C(C)C)C(N)=O [GRP, gastrin-releasing peptide]
[3]
  inhibition of binding of ^125I-[Tyr^11]SS-14 to somatostatin receptors: Neither NMB nor GRP at concentrations up to 10 µ M inhibited binding
Mu opioid receptors
  inhibition of binding to mu opioid receptors: Neither NMB nor GRP at concentrations up to 10 µ M inhibited binding

## CSCC[C@H](NC(=O)[C@H](Cc1ccccc1)NC(=O)[C@H](Cc1c[nH]cn1)NC(=O)CNC(=O)[C@@H](NC(=O)[C@H](C)NC(=O)[C@H](Cc1c[nH]c2ccccc12)NC(=O)[C@H](CC(C)C)NC(=O)[C@H](CC(N)=O)NC(=O)CN)[C@@H](C)O)C(N)=O [NMB, neuromedin B]
NMB Receptor; NMB-R transfected cells
  increase in [^3H]IP caused by 3 nM NMB: 14 fold
[6]
  [^3H]IP, NMB (10 nM) Alone: 21.0 ± 1.8 dpm x 10^3
[3]
  inhibition of binding of ^125I-[Tyr^11]SS-14 to somatostatin receptors: Neither NMB nor GRP at concentrations up to 10 µ M inhibited binding
Mu opioid receptors
  inhibition of binding to mu opioid receptors: Neither NMB nor GRP at concentrations up to 10 µ M inhibited binding
